Results from patent US20260356856A1, “KRAS G12S AND G12C INHIBITORS” (MIRATI THERAPEUTICS, INC., priority 2023, published 2026).

What was measured:
[1] = target: T1, KRas-mediated phosphorylation of ERK in A549 cells (Homo sapiens, UniProt P01116, G12S); experiment: Inhibition of KRas-mediated phosphorylation of ERK (HTRF), A549 cells; assay type: cell-based; settings: HTRF pERK, 3 h incubation
T1 construct: pERK HTRF read-out

[2] = target: T2, KRas-mediated phosphorylation of ERK in MKN1 cells (Homo sapiens, UniProt P01116); experiment: Inhibition of KRas-mediated phosphorylation of ERK (HTRF), MKN1 cells; assay type: cell-based; settings: MKN1 cells (KRas WT); HTRF pERK; 3 h incubation
T2 construct: pERK HTRF read-out
Procedure: Inhibition of KRas Phosphorylation of ERK (HTRF) by Exemplary Compounds of Formula (Ia) or (Ib)
Cisbio HTRF Advanced pERK Assay Catalog #64AERPEH • Cells: MKN1, PSN1 • Procedure: • 1. Day 1: Seed 6,000 cells/well −25 μl/well in 384-well white solid bottom plate; RPM1_10% FBS. Incubate overnight at 37 °C/5% CO2. • 2.

[3] = target: T3, KRas-mediated phosphorylation of ERK in H358 cells (Homo sapiens, UniProt P01116, G12C); experiment: Inhibition of KRas-mediated phosphorylation of ERK (HTRF), H358 cells; assay type: cell-based; settings: HTRF pERK, 3 h incubation
T3 construct: pERK HTRF read-out

[4] = target: T4, KRas WT (Homo sapiens, UniProt P01116); experiment: KRas binding assay, TR-FRET displacement of Cy5 labelled tracer; settings: 60-minute incubation at room temperature, 1% DMSO, pH 7.5
T4 construct: Biotinylated KRas (corresponding to amino acids 1-169, produced at Accelegan Inc.); biotin (biotinylated); purchased Accelegan Inc
In short: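 Room-temperature incubation (60 min) of compound with biotinylated KRas 1-169, tracer and Tb-streptavidin preceded the TR-FRET read. Final DMSO was 1%; buffer pH 7.5. Percent-of-control values went into a 4-parameter equation to give IC50.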

[5] = target: T5, KRas G12S (Homo sapiens, UniProt P01116, G12S); experiment: as above; settings: 60-minute incubation at room temperature, 1% DMSO, pH 7.5
T5 construct: Biotinylated KRas (corresponding to amino acids 1-169, produced at Accelegan Inc.); biotin (biotinylated); purchased Accelegan Inc
In short: (§1)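 Truncated KRas (1-169), biotinylated, Tb-streptavidin donor; one-hour room-temperature incubation; IC50 by four-parameter curve fitting.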

[6] = target: T6, KRas G12C (Homo sapiens, UniProt P01116, G12C); experiment: as above; settings: 60-minute incubation at room temperature, 1% DMSO, pH 7.5
T6 construct: Biotinylated KRas (corresponding to amino acids 1-169, produced at Accelegan Inc.); biotin (biotinylated); purchased Accelegan Inc
In short: as §1

T1 sequence (P01116 1-188 isoform P01116-2 G12S): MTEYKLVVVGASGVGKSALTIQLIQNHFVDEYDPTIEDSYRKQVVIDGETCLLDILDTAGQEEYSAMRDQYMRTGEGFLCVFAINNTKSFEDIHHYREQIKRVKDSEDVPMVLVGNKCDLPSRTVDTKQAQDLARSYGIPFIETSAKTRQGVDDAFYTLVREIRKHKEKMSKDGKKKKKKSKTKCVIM
T4 sequence (P01116 1-169 isoform P01116-2): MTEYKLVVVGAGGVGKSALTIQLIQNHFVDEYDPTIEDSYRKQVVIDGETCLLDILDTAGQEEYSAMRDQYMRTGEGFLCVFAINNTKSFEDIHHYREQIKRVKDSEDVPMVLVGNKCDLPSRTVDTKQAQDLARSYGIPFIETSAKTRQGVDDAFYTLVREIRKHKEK
T6 sequence (P01116 1-169 isoform P01116-2 G12C): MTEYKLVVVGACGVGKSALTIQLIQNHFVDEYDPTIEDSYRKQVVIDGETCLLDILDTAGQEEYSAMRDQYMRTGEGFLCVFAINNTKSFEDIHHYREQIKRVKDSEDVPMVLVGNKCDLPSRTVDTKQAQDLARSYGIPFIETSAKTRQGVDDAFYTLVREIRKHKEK
T5 sequence (P01116 1-169 isoform P01116-2 G12S): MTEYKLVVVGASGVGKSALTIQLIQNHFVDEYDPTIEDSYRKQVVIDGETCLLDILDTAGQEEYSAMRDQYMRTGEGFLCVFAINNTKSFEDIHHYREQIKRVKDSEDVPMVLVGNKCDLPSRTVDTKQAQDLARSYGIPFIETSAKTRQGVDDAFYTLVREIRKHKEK
T3 sequence (P01116 1-188 isoform P01116-2 G12C): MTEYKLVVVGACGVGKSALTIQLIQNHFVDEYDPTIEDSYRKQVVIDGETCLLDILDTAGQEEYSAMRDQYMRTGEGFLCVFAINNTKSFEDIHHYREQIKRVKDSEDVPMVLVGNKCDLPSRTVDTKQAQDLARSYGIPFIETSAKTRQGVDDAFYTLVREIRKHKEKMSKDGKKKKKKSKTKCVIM
T2 sequence (P01116 1-188 isoform P01116-2): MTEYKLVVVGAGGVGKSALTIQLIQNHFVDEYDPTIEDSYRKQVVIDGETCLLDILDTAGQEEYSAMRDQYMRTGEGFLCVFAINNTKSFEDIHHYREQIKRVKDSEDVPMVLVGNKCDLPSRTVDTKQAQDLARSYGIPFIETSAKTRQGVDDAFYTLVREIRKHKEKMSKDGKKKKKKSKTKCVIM

Cc1ccn(C(=O)[C@@H]2CCCN(c3nc(OC[C@@]45CCCN4C[C@H](F)C5)nc4c(F)c(-c5ccc(F)c6sc(N)c(C#N)c56)c(Cl)cc34)CC2)n1 (atropisomer, axis not shown; (aS)) [Example 172, 2-amino-4-((S)-6-chloro-8-fluoro-2-(((2R,7aS)-2-fluorotetrahydro-1H-pyrrolizin-7a(5H)-yl)methoxy)-4-((R)-4-(3-methyl-1H-pyrazole-1-carbonyl)azepan-1-yl)quinazolin-7-yl)-7-fluorobenzo[b]thiophene-3-carbonitrile] gave an IC50 [1] of 35 nM, an IC50 [2] of 199 nM and an IC50 [3] of 50 nM.
With CCc1c(F)ccc2cc(O)cc(-c3ncc4c(N5CCC(C=O)CC5)nc(OC[C@@]56CCCN5C[C@H](F)C6)nc4c3F)c12 [Example 15, 1-(7-(8-ethyl-7-fluoro-3-hydroxynaphthalen-1-yl)-8-fluoro-2-(((2R,7aS)-2-fluorotetrahydro-1H-pyrrolizin-7a(5H)-yl)methoxy)pyrido[4,3-d]pyrimidin-4-yl)piperidine-4-carbaldehyde] the IC50 [1] was 149 nM, the IC50 [4] was 11 nM and the IC50 [5] was 9 nM. It also gave an IC50 [6] of less than 2 nM and an IC50 [3] of 22 nM.
CCc1c(F)ccc2cc(O)cc(-c3ncc4c(N5CCC(C(=O)Oc6ccc(F)c(F)c6)CC5)nc(OC[C@@]56CCCN5C[C@H](F)C6)nc4c3F)c12 [Example 40, 3,4-difluorophenyl 1-(7-(8-ethyl-7-fluoro-3-hydroxynaphthalen-1-yl)-8-fluoro-2-(((2R,7aS)-2-fluorotetrahydro-1H-pyrrolizin-7a(5H)-yl)methoxy)pyrido[4,3-d]pyrimidin-4-yl)piperidine-4-carboxylate] showed an IC50 [1] greater than 10000 nM, an IC50 [4] of 729 nM and an IC50 [5] of 1250 nM. It also gave an IC50 [6] of 9 nM and an IC50 [3] of 913 nM.
Work on CCc1c(F)ccc2cc(O)cc(-c3ncc4c(N5CCC(C(=O)n6ccc(C)n6)C5)nc(OC[C@@]56CCCN5C[C@H](F)C6)nc4c3F)c12 (stereo partly drawn) [Example 56, (1-(7-(8-ethyl-7-fluoro-3-hydroxynaphthalen-1-yl)-8-fluoro-2-(((2R,7aS)-2-fluorotetrahydro-1H-pyrrolizin-7a(5H)-yl)methoxy)pyrido[4,3-d]pyrimidin-4-yl)pyrrolidin-3-yl)(3-methyl-1H -pyrazol-1-yl)methanone] yielded an IC50 [1] of 66 nM, an IC50 [4] of 69 nM and an IC50 [5] of 17 nM. The IC50 [6] was 13 nM and the IC50 [3] was 2800 nM.
For CCc1c(F)ccc2cc(O)cc(-c3ncc4c(N5CCN(C(=O)n6cccn6)CC5)nc(OC[C@@]56CCCN5C[C@H](F)C6)nc4c3F)c12 [Example 60, (4-(7-(8-ethyl-7-fluoro-3-hydroxynaphthalen-1-yl)-8-fluoro-2-(((2R,7aS)-2-fluorotetrahydro-1H-pyrrolizin-7a(5H)-yl)methoxy)pyrido[4,3-d]pyrimidin-4-yl)piperazin-1-yl)(1H-pyrazol-1-yl) methanone], the IC50 [1] was 2350 nM, the IC50 [4] was 24 nM and the IC50 [5] was 115 nM. For the same compound, the IC50 [6] was 76 nM and the IC50 [3] was 450 nM.
For CCc1c(F)ccc2cc(O)cc(-c3ncc4c(N5CCC(C(=O)N(C)c6ccccn6)CC5)nc(OC[C@@]56CCCN5C[C@H](F)C6)nc4c3F)c12 [Example 62, 1-(7-(8-ethyl-7-fluoro-3-hydroxynaphthalen-1-yl)-8-fluoro-2-(((2R,7aS)-2-fluorotetrahydro-1H-pyrrolizin-7a(5H)-yl)methoxy)pyrido[4,3-d]pyrimidin-4-yl)-N-methyl-N-(pyridin-2-yl)piperidine-4-carboxamide], the IC50 [1] was 7060 nM, the IC50 [4] was 64 nM and the IC50 [5] was 6330 nM. The IC50 [6] was 619 nM and the IC50 [3] was 8390 nM.
CCc1c(F)ccc2cc(O)cc(N3CCc4c(nc(OC[C@@]56CCCN5C[C@H](F)C6)nc4N4CCCC(C(=O)n5cccn5)CC4)C3)c12 (stereo partly drawn) [Example 143, (1-(7-(8-ethyl-7-fluoro-3-hydroxynaphthalen-1-yl)-2-(((2R,7aS)-2-fluorotetrahydro-1H-pyrrolizin-7a(5H)-yl)methoxy)-5,6,7,8-tetrahydropyrido[3,4-d]pyrimidin-4-yl)azepan-4-yl)(1H-pyrazol-1-yl)methanone] showed an IC50 [1] of 38 nM, an IC50 [4] of 166 nM and an IC50 [5] of 8 nM. The IC50 [6] was 56 nM and the IC50 [3] was 931 nM.
With CCc1c(F)ccc2cc(O)cc(N3CCc4c(nc(OC[C@@]56CCCN5C[C@H](F)C6)nc4N4CCCC(C(=O)n5ccc(C)n5)C4)C3)c12 (stereo partly drawn) [Example 144, (1-(7-(8-ethyl-7-fluoro-3-hydroxynaphthalen-1-yl)-2-(((2R,7aS)-2-fluorotetrahydro-1H-pyrrolizin-7a(5H)-yl)methoxy)-5,6,7,8-tetrahydropyrido[3,4-d]pyrimidin-4-yl)piperidin-3-yl)(3-methyl-1H-pyrazol-1-yl)methanone] the IC50 [1] was 5900 nM, the IC50 [4] was 68 nM and the IC50 [5] was 32 nM. It also gave an IC50 [6] of 50 nM and an IC50 [3] of 178 nM.
Work on CCc1c(F)ccc2cc(O)cc(-c3ncc4c(N5CCC(C(=O)Nc6ccccn6)CC5)nc(OC[C@@]56CCCN5C[C@H](F)C6)nc4c3F)c12 [Example 153, 1-(7-(8-ethyl-7-fluoro-3-hydroxynaphthalen-1-yl)-8-fluoro-2-(((2R,7aS)-2-fluorotetrahydro-1H-pyrrolizin-7a(5H)-yl)methoxy)pyrido[4,3-d]pyrimidin-4-yl)-N-(pyridin-2-yl)piperidine-4-carboxamide] yielded an IC50 [1] of 4130 nM, an IC50 [4] of 138 nM and an IC50 [5] of 642 nM. For the same compound, the IC50 [6] was 439 nM and the IC50 [3] was 1760 nM.
Compound CCc1c(F)ccc2cc(O)cc(N3CCc4c(nc(OC[C@@]56CCCN5C[C@H](F)C6)nc4N(C)CCCC(=O)n4ccc(C)n4)C3)c12 [Example 194, 4-((7-(8-ethyl-7-fluoro-3-hydroxynaphthalen-1-yl)-2-(((2R,7aS)-2-fluorotetrahydro-1H-pyrrolizin-7a(5H)-yl)methoxy)-5,6,7,8-tetrahydropyrido[3,4-d]pyrimidin-4-yl)(methyl)amino)-1-(3-methyl-1H-pyrazol-1-yl) butan-1-one] has an IC50 [1] of 130 nM, an IC50 [2] of 766 nM and an IC50 [4] of 209 nM. For the same compound, the IC50 [5] was 7 nM and the IC50 [6] was 4 nM.
In the case of CCc1c(F)ccc2cc(O)cc(N3CCc4c(nc(OC[C@@]56CCCN5C[C@H](F)C6)nc4N(C)CCC(=O)n4ccc(C)n4)C3)c12 [Example 196, 3-((7-(8-ethyl-7-fluoro-3-hydroxynaphthalen-1-yl)-2-(((2R,7aS)-2-fluorotetrahydro-1H-pyrrolizin-7a(5H)-yl)methoxy)-5,6,7,8-tetrahydropyrido[3,4-d]pyrimidin-4-yl)(methyl)amino)-1-(3-methyl-1H-pyrazol-1-yl) propan-1-one], the IC50 [1] is reported as greater than 10000 nM, the IC50 [2] is reported as 2200 nM and the IC50 [4] is reported as 55 nM. The IC50 [5] was 45 nM and the IC50 [6] was 40 nM.
In the case of CCc1c(F)ccc2cc(O)cc(N3CCc4c(nc(OC[C@@]56CCCN5C[C@H](F)C6)nc4N4CCC(C(=O)n5ccc(C)n5)C4)C3)c12 (stereo partly drawn) [Example 197, (1-(7-(8-ethyl-7-fluoro-3-hydroxynaphthalen-1-yl)-2-(((2R,7aS)-2-fluorotetrahydro-1H-pyrrolizin-7a(5H)-yl)methoxy)-5,6,7,8-tetrahydropyrido[3,4-d]pyrimidin-4-yl)pyrrolidin-3-yl)(3-methyl-1H-pyrazol-1-yl)methanone], the IC50 [1] is reported as 164 nM, the IC50 [2] is reported as 4950 nM and the IC50 [4] is reported as 176 nM. The IC50 [5] was 28 nM and the IC50 [6] was 21 nM.
CON(C)C(=O)CCCN(C)c1nc(OC[C@@]23CCCN2C[C@H](F)C3)nc2c(F)c(-c3ccc(F)c4sc(N)c(C#N)c34)c(Cl)cc12 [Example 233, 4-((7-(2-amino-3-cyano-7-fluorobenzo[b]thiophen-4-yl)-6-chloro-8-fluoro-2-(((2R,7aS)-2-fluorotetrahydro-1H-pyrrolizin-7a(5H)-yl)methoxy)quinazolin-4-yl)(methyl)amino)-N-methoxy-N-methylbutanamide] was tested, and the IC50 [1] was 278 nM, the IC50 [2] was 83 nM and the IC50 [4] was 11 nM. It also gave an IC50 [5] of 8 nM and an IC50 [6] of 6 nM.
In the case of CCc1c(F)ccc2cc(O)cc(-c3ncc4c(N(C)CCCC(=O)N(C)C(C)=O)nc(OC[C@@]56CCCN5C[C@@]5(CC5(F)F)C6)nc4c3F)c12 [Example 293, N-acetyl-4-((2-(((1S,7a'S)-2,2-difluorodihydro-1′H,3′H-spiro[cyclopropane-1,2′-pyrrolizin]-7a′ (5′H)-yl)methoxy)-7-(8-ethyl-7-fluoro-3-hydroxynaphthalen-1-yl)-8-fluoropyrido[4,3-d]pyrimidin-4-yl)(methyl)amino)-N-methylbutanamide], the IC50 [1] is reported as 67 nM, the IC50 [2] is reported as 699 nM and the IC50 [4] is reported as 219 nM. It also gave an IC50 [5] of 21 nM and an IC50 [6] of 72 nM.
